One series in a line: Solubility in H2O. It counts as physicochemical. The note with it: water; saturated solution in H2O at r.t., centrifugation, absorption of supernatant (UV/Vis).
Series [1] deals with T1, P0 (P0-expressing RT4 D6P2T cells) (Rattus norvegicus, UniProt P06907).
T1 construct: was performed using P0-expressing RT4 D6P2T cells; host or cells: RT4 D6P2T Schwannoma cells
T1 sequence (P06907 30-248): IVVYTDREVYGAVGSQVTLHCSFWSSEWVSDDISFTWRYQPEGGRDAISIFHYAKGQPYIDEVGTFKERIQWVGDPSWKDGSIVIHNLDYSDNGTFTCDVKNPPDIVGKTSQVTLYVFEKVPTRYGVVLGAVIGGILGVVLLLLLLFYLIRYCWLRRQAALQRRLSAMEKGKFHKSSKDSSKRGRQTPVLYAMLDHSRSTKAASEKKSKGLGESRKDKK
The experiment in a line: Flow cytometric saturation binding (KD). The note with it: saturation binding 0–2000 nM, flow cytometry APC-A channel, triplicate, repeated at least three times. How it is done: Analysis of the binding affinity (KD) of Cy5-P0_1–25, Cy5-P0_41–65, Cy5-P0_61–85, Cy5-P0_81–105, Cy5-P0_95–120 and Cy5-P0_101–125 for P0 was performed using P0-expressing RT4 D6P2T cells and a previously described flow cytometric method. For saturation, binding experiments were performed for each of the fluorescent peptides in a concentration range of 0–2000 nM. All measurements were taken in triplicate, and experiments were repeated at least three times per tracer. Fluorescence was measured using a FACSCanto II flow cytometry device (BD Biosciences) in the APC-A channel. The normalized geometric means were fitted with equations in the GraphPad Prism 5 software. A fluorescence-linked immunoabsorbent assay (FLISA) that was used to confirm the specificity of Cy5-P0_101–125 for P0 is described in Additional file 1: Fluorescence-linked immunoabsorbent assay.

For series [2] the following is noted: ref Spa et al (2); cited from earlier work.
On the set-up of series [3]: method as in 2 sources, one per row (each row's own in cited_ref): ref Spa et al (2) ||| ref (2) (a number printed in a supplementary file, which may have a reference list of its own: not looked up in the article's list). To be noted: cited from earlier work.
The next series can be described thus: Stability in serum. The note with it: 24 h at 37 °C, % stable.
Series [4] can be described thus: Stability at different temperatures. To be noted: after 4 hr at -20 °C, PBS, 10–0.6 µM, relative to t=0, n = 6.
Description: A stock solution of either non-functionalized Cy5 or Cy5-P0101-125 (10 µM in PBS) was diluted
1:1 in PBS to create a concentration range between 10 –0.6 µM. The absorbance and
fluorescence intensities of each sample were measured (t=0 h) prior to storing the samples
at different temperatures (i.e., -20, 0, 20 and 37 °C). After t = 4 h, the absorbance and
fluorescence intensities of each sample was measured. The relative intensities (compared to
t=0) of each concentration were averaged to obtain n = 6 per temperature setting.
The target of a further series is T2, Myelin protein zero (P0) (Rattus norvegicus, UniProt P06907).
T2 chain: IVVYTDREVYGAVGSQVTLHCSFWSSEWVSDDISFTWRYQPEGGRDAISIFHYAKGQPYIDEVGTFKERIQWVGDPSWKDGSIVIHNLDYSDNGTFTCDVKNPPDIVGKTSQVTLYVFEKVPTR
Briefly: flow cytometry saturation binding (RT4 D6P2T cells). On the technique in general: In flow cytometry, cells or beads pass a laser one at a time.

In brackets after ≈: the same amount, converted by molar mass. Several values for one entry are separate records, joined by “and”; a condition that tells them apart may be missing. Equal entries are not always repeated. Residues, ends and D or L forms follow the SMILES beside them. *: point of attachment. X1 = CC1(C)C(/C=C/C=C/C=C2/N(CCCCS(=O)(=O)O)c3ccc(S(=O)(=O)O)cc3C2(C)C)=[N+](CCCCCC(=O)NCCN2C(=O)CC(*)C2=O)c2ccc(S(=O)(=O)[O-])cc21; Cy5 = far-red cyanine dye Cy5 on Cys

We go through seven molecules from article PMC8164657, “Intraoperative visualization of nerves using a myelin protein-zero specific fluorescent tracer” (EJNMMI Research, 2021).

A word on the solubility (thermodynamic): it is the concentration in solution at equilibrium with solid. By Kd is commonly meant the free concentration of one partner at which half of the binding sites on the other are occupied at equilibrium, for simple one-to-one binding. Higher therefore signals lower affinity. `CC[C@H](C)[C@H](N)C(=O)N[C@H](C(=O)N[C@H](C(=O)N[C@@H](Cc1ccc(O)cc1)C(=O)N[C@H](C(=O)N[C@@H](CC(=O)O)C(=O)N[C@@H](CCCNC(=N)N)C(=O)N[C@@H](CCC(=O)O)C(=O)N[C@H](C(=O)N[C@@H](Cc1c[nH]cn1)C(=O)NCC(=O)N[C@@H](C)C(=O)N[C@H](C(=O)NCC(=O)N[C@@H](CO)C(=O)N[C@@H](CCCNC(=N)N)C(=O)N[C@H](C(=O)N[C@H](C(=O)N[C@@H](CC(C)C)C(=O)N[C@@H](Cc1c[nH]cn1)C(=O)N[C@@H](CSC1CC(=O)N(CCNC(=O)CCCCC[N+]2=C(/C=C/C=C/C=C3/N(CCCCS(=O)(=O)O)c4ccc(S(=O)(=O)O)cc4C3(C)C)C(C)(C)c3cc(S(=O)(=O)[O-])ccc32)C1=O)C(=O)N[C@@H](CO)C(=O)N[C@@H](Cc1ccccc1)C(=O)N[C@@H](Cc1c[nH]c2ccccc12)C(=O)N[C@@H](CO)C(N)=O)[C@@H](C)O)C(C)C)C(C)C)C(C)C)[C@@H](C)O)C(C)C)C(C)C` (some centres unmarked) [Cy5-P0_1–25] (H-IVVYTDREVHGAVGSRVTLHC(X1)SFWS-NH2): the solubility (thermodynamic) in the series “Solubility in H2O” turned out to be 12 µM (≈ 44.5 µg/mL). Further, the Kd in series [1] is over 1000 nM.

In the case of `CC[C@H](C)[C@H](NC(=O)[C@H](C)NC(=O)[C@H](CC(=O)O)NC(=O)[C@H](CCCNC(=N)N)NC(=O)CNC(=O)CNC(=O)[C@H](CCC(=O)O)NC(=O)[C@@H]1CCCN1C(C)=O)C(=O)N[C@@H](CO)C(=O)N[C@H](C(=O)N[C@@H](Cc1ccccc1)C(=O)N[C@@H](Cc1c[nH]cn1)C(=O)N[C@@H](Cc1ccc(O)cc1)C(=O)N[C@@H](C)C(=O)N[C@@H](CCCCN)C(=O)NCC(=O)N[C@@H](CCC(N)=O)C(=O)N1CCC[C@H]1C(=O)N[C@@H](Cc1ccc(O)cc1)C(=O)N[C@H](C(=O)N[C@@H](CC(=O)O)C(=O)N[C@@H](CCC(=O)O)C(=O)N[C@H](C(=O)NCC(=O)N[C@H](C(=O)N[C@@H](CSC1CC(=O)N(CCNC(=O)CCCCC[N+]2=C(/C=C/C=C/C=C3/N(CCCCS(=O)(=O)O)c4ccc(S(=O)(=O)O)cc4C3(C)C)C(C)(C)c3cc(S(=O)(=O)[O-])ccc32)C1=O)C(N)=O)[C@@H](C)O)C(C)C)[C@@H](C)CC)[C@@H](C)CC` (some centres unmarked) [Cy5-P0_41–65] (Ac-PEGGRDAISIFHYAKGQPYIDEVGTC(X1)-NH2), the solubility (thermodynamic) in “Solubility in H2O” worked out at 45 µM (≈ 169 µg/mL). Besides, the Kd in series [1] is over 1000 nM.

For `CC[C@H](C)[C@H](NC(=O)[C@H](CCCNC(=N)N)NC(=O)[C@H](CCC(=O)O)NC(=O)[C@H](CCCCN)NC(=O)[C@H](Cc1ccccc1)NC(=O)[C@@H](NC(=O)CNC(=O)[C@@H](NC(=O)[C@H](CCC(=O)O)NC(=O)[C@H](CC(=O)O)NC(C)=O)C(C)C)[C@@H](C)O)C(=O)N[C@@H](CCC(N)=O)C(=O)N[C@@H](Cc1c[nH]c2ccccc12)C(=O)N[C@H](C(=O)NCC(=O)N[C@@H](CC(=O)O)C(=O)N1CCC[C@H]1C(=O)N[C@@H](CCCNC(=N)N)C(=O)N[C@@H](Cc1c[nH]c2ccccc12)C(=O)N[C@@H](CCCCN)C(=O)N[C@@H](CC(=O)O)C(=O)NCC(=O)N[C@@H](CO)C(=O)N[C@H](C(=O)N[C@H](C(=O)N[C@H](C(=O)N[C@@H](CSC1CC(=O)N(CCNC(=O)CCCCC[N+]2=C(/C=C/C=C/C=C3/N(CCCCS(=O)(=O)O)c4ccc(S(=O)(=O)O)cc4C3(C)C)C(C)(C)c3cc(S(=O)(=O)[O-])ccc32)C1=O)C(N)=O)[C@@H](C)CC)C(C)C)[C@@H](C)CC)C(C)C` (some centres unmarked) [Cy5-P0_61–85] (Ac-DEVGTFKERIQWVGDPRWKDGSIVIC(X1)-NH2), the solubility (thermodynamic) in “Solubility in H2O” was determined as 6 µM (≈ 23.8 µg/mL). In addition, the Kd in series [1] was over 1000 nM.

Molecule `CC[C@H](C)[C@H](NC(=O)[C@H](CO)NC(=O)CNC(C)=O)C(=O)N[C@H](C(=O)N[C@H](C(=O)N[C@@H](Cc1c[nH]cn1)C(=O)N[C@@H](CC(N)=O)C(=O)N[C@@H](CC(C)C)C(=O)N[C@@H](CC(=O)O)C(=O)N[C@@H](Cc1ccc(O)cc1)C(=O)N[C@@H](CO)C(=O)N[C@@H](CC(=O)O)C(=O)N[C@@H](CC(N)=O)C(=O)NCC(=O)N[C@H](C(=O)N[C@@H](Cc1ccccc1)C(=O)N[C@H](C(=O)N[C@@H](CSC1CC(=O)N(CCNC(=O)CCCCC[N+]2=C(/C=C/C=C/C=C3/N(CCCCS(=O)(=O)O)c4ccc(S(=O)(=O)O)cc4C3(C)C)C(C)(C)c3cc(S(=O)(=O)[O-])ccc32)C1=O)C(=O)N[C@@H](CC(=O)O)C(=O)N[C@H](C(=O)N[C@@H](CCCCN)C(=O)N[C@@H](CC(N)=O)C(=O)N1CCC[C@H]1C(=O)N1CCC[C@H]1C(=O)N[C@@H](CC(=O)O)C(N)=O)C(C)C)[C@@H](C)O)[C@@H](C)O)[C@@H](C)CC)C(C)C` (some centres unmarked) [Cy5-P0_81–105] (Ac-GSIVIHNLDYSDNGTFTC(X1)DVKNPPD-NH2) came in with a thermodynamic solubility in “Solubility in H2O” of 68 µM (≈ 248 µg/mL). Also, the Kd in series [1] is over 1000 nM.

`CC[C@H](C)[C@H](NC(=O)[C@H](CC(=O)O)NC(=O)[C@@H]1CCCN1C(=O)[C@@H]1CCCN1C(=O)[C@H](CC(N)=O)NC(=O)[C@H](CCCCN)NC(=O)[C@@H](NC(=O)[C@H](CC(=O)O)NC(=O)[C@H](C)NC(=O)[C@@H](NC(=O)[C@H](Cc1ccccc1)NC(=O)[C@@H](NC(C)=O)[C@@H](C)O)[C@@H](C)O)C(C)C)C(=O)N[C@H](C(=O)NCC(=O)N[C@@H](CCCCN)C(=O)N[C@H](C(=O)N[C@@H](CO)C(=O)N[C@@H](CCC(N)=O)C(=O)N[C@H](C(=O)N[C@H](C(=O)N[C@@H](CC(C)C)C(=O)N[C@@H](Cc1ccc(O)cc1)C(=O)N[C@H](C(=O)N[C@@H](Cc1ccccc1)C(=O)N[C@@H](CCC(=O)O)C(=O)N[C@@H](CCCCN)C(=O)N[C@@H](CSC1CC(=O)N(CCNC(=O)CCCCC[N+]2=C(/C=C/C=C/C=C3/N(CCCCS(=O)(=O)O)c4ccc(S(=O)(=O)O)cc4C3(C)C)C(C)(C)c3cc(S(=O)(=O)[O-])ccc32)C1=O)C(N)=O)C(C)C)[C@@H](C)O)C(C)C)[C@@H](C)O)C(C)C` (some centres unmarked) [Cy5-P0_95–120] (Ac-TFTADVKNPPDIVGKTSQVTLYVFEKC(X1)-NH2): the thermodynamic solubility in the series “Solubility in H2O” was 150 µM (≈ 589 µg/mL). Besides, in series [1], the Kd is over 1000 nM.

For the molecule `CCN1/C(=C/C=C/C=C/C2=[N+](CCCCCC(=O)O)c3ccc(S(=O)(=O)O)cc3C2(C)C)C(C)(C)c2cc(S(=O)(=O)[O-])ccc21` [Cy5], the Serum protein binding in series [2] was 6% ± 5% and 6%. The “degradation when incubated with glutathione” value in series [3] (ref (2)) is on record as 1%. The Stability towards glutathione in series [3] (ref Spa et al (2)) is given as 99%. Also, the Stability in serum in “Stability in serum” stood at 98%. In series [4], this molecule gave a remaining absorbance of 66 ± 8% and a remaining fluorescence of 80 ± 10%.

In the series with Myelin protein zero (P0), Ac-KNPPDIVGKTSQVTLYVFEKVPTRYC(Cy5)-NH2 [Cy5-P0(101-125)] returned a Kd of 105 nM.
